From US12390474B2, “Immediate release multilayer tablet” (priority 2020, dated 2025)

Columns and labels:
[1] = Particle size distribution of samidorphan L-malate; type: physicochemical
Text: The particle size distribution of the samidorphan or samidorphan pharmaceutically acceptable salt (e.g., L-malate) present in a disclosed tablet (e.g., as part of a first tablet layer) may be for example, a (D10) of between about 10 μm to about 80 μm, a (D50) of between about 40 μm to about 200 μm and a (D90) of between about 100 μm to about 300 μm, more preferably a D10 of between about 25 μm and about 50 μm; the D50 of between about 60 μm and about 100 μm. In some embodiments, D90 of the samidorphan (e.g., L-malate salt) is between about 120 μm and about 175 μm. […] Particle size (diameter) may be determined by conventional techniques such as dynamic light scattering. The ‘Dx’ nomenclature means that ‘x’ percent of the particles have a number average diameter (‘D’) less than or equal to the reported value when measured by static or dynamic light scattering techniques known to those skilled in the art. (e.g. D10=175 μm, means that 10% of particles have a number average diameter of less than or equal to 175 μm), a D50 (or Dv50) of less than 300 μm, means that 50% of the particle population has a diameter of less than or equal to 300 μm. The term “Dx” as used herein refers to a volume based size and is equivalent to the term “DvX” commonly used to characterize particle sizes. Since the particles of the present invention may be irregular in shape, an approximation of the particle size is made on the basis of the volume-based particle size, which specifies the diameter of the sphere that has same volume as a given particle. Unless otherwise specified, all particle sizes are specified in terms of volume-based measurements and are measured by laser light scattering/diffraction. Particle sizes are then determined based on Mie scattering theory.
For samidorphan L-malate, a recrystallization process was implemented providing particle size control during manufacturing to intentionally target a particle size distribution similar to the size of the drug product filler excipients. Unmilled and recrystallized grades of samidorphan L-malate were characterized for particle size distribution using 3 unique lots of each. The recrystallization was targeted to produce material with less fine particles thus increasing the D10. A slight increase in the D50 and decrease in the D90 adjusted the centerpoint of the distribution and decreased the overall span of the distribution. Overall the recrystallized materials had tighter distributions and reduced lot to lot variability, indicating better control. No change in the solid state form was observed between unmilled and recrystallized samidorphan L-malate as assessed by PXRD spectral comparison.

[2] = Chemical compatibility of olanzapine and samidorphan L-malate, stability at 40° C./75% RH by HPLC; type: physicochemical; details: for Percentage Related Compound B Impurity: 40° C./75% RH, ND: ≤LOD (0.02 wt %), LOQ: 0.05 wt %; for Percentage Total Impurities: 40° C./75 RH
Protocol: Samples in 20 ml Wheaton scintillation vials were stored at 40° C./75% RH in open and closed vial configurations. Closed vials were vials closed with a urea cap and wrapped using parafilm under ambient conditions. The contents of the vials were tested at the start of the study and after 2, 6 and 12 weeks. At each time point samples were analysed by reversed phase HPLC (Waters ACQUITY UPLC H-Class System) with ACQUITY PDA Detector using a Waters ACQUITY UPLC CSH C18 Column, 3 mm×100 mm, and a gradient elution of acetate buffer pH 5.1 and 50/50 (v/v) acetonitrile/methanol.

[3] = cited from earlier work

NC(=O)c1ccc2c(c1O)[C@]13CCN(CC4CC4)[C@H](C2)[C@]1(O)CCC(=O)C3.O=C(O)C[C@H](O)C(=O)O [Sample number 5]
Particle size D10 ([1]; listed as 5): 46 μm | Particle size D50 ([1]; listed as 5): 90 μm | Particle size D90 ([1]; listed as 5): 160 μm

NC(=O)c1ccc2c(c1O)[C@]13CCN(CC4CC4)[C@H](C2)[C@]1(O)CCC(=O)C3.O=C(O)C[C@H](O)C(=O)O [Sample number 1]
Particle size D10 ([1]; listed as 1): 8 μm | Particle size D50 ([1]; listed as 1): 37 μm | Particle size D90 ([1]; listed as 1): 223 μm

NC(=O)c1ccc2c(c1O)[C@]13CCN(CC4CC4)[C@H](C2)[C@]1(O)CCC(=O)C3.O=C(O)C[C@H](O)C(=O)O [Sample number 4]
Particle size D10 ([1]; listed as 4): 33 μm | Particle size D50 ([1]; listed as 4): 73 μm | Particle size D90 ([1]; listed as 4): 130 μm

Cc1cc2c(s1)Nc1ccccc1N=C2N1CCN(C)CC1 [Olanzapine, 2-methyl-4-(4-methyl-1-piperazinyl)-10H-thieno[2,3-b][1,5]benzodiazepine]
Percentage Related Compound B Impurity ([2]; INITIAL): 0.01 wt % | Percentage Related Compound B Impurity ([2]; OPEN vial, 2 WEEK): <LOQ | Percentage Total Impurities ([2]; CLOSED vial, 2 WEEK): 0.00% | Percentage Total Impurities ([2]; CLOSED vial, 6 WEEK): 0.00% | Percentage Total Impurities ([2]; CLOSED vial, 12 WEEK): 0.00% | Percentage Total Impurities ([2]; INITIAL): 0.00% | Percentage Total Impurities ([2]; OPEN vial, 2 WEEK): 0.00% | Percentage Total Impurities ([2]; OPEN vial, 6 WEEK): 0.00% | Percentage Total Impurities ([2]; OPEN vial, 12 WEEK): 0.00%

NC(=O)c1ccc2c(c1O)[C@]13CCN(CC4CC4)[C@H](C2)[C@]1(O)CCC(=O)C3.O=C(O)C[C@H](O)C(=O)O [Sample number 3]
Particle size D10 ([1]; listed as 3): 6 μm | Particle size D50 ([1]; listed as 3): 28 μm | Particle size D90 ([1]; listed as 3): 243 μm

NC(=O)c1ccc2c(c1O)[C@]13CCN(CC4CC4)[C@H](C2)[C@]1(O)CCC(=O)C3.O=C(O)C[C@H](O)C(=O)O [Samidorphan L-malate, morphinan-3-carboxamide, 17-(cyclopropylmethyl)-4, 14-dihydroxy6-oxo-, (2S)-2-hydroxybutanedioate]
Percentage Total Impurities ([2]; CLOSED vial, 2 WEEK): 0.00% | Percentage Total Impurities ([2]; CLOSED vial, 6 WEEK): 0.00% | Percentage Total Impurities ([2]; CLOSED vial, 12 WEEK): 0.00% | Percentage Total Impurities ([2]; INITIAL): 0.00% | Percentage Total Impurities ([2]; OPEN vial, 2 WEEK): 0.00% | Percentage Total Impurities ([2]; OPEN vial, 6 WEEK): 0.00% | Percentage Total Impurities ([2]; OPEN vial, 12 WEEK): 0.00% | pKa (amine) [3]: 8.3 | pKa (phenol) [3]: 10.1

NC(=O)c1ccc2c(c1O)[C@]13CCN(CC4CC4)[C@H](C2)[C@]1(O)CCC(=O)C3.O=C(O)C[C@H](O)C(=O)O [Sample number 2]
Particle size D10 ([1]; listed as 2): 10 μm | Particle size D50 ([1]; listed as 2): 36 μm | Particle size D90 ([1]; listed as 2): 231 μm

NC(=O)c1ccc2c(c1O)[C@]13CCN(CC4CC4)[C@H](C2)[C@]1(O)CCC(=O)C3.O=C(O)C[C@H](O)C(=O)O [Sample number 6]
Particle size D10 ([1]; listed as 6): 42 μm | Particle size D50 ([1]; listed as 6): 90 μm | Particle size D90 ([1]; listed as 6): 165 μm
